Source: ChEMBL document CHEMBL4138268, “Discovery of Spiro Oxazolidinediones as Selective, Orally Bioavailable Inhibitors of p300/CBP Histone Acetyltransferases” (ACS Med Chem Lett, 2018)

Experiments:
[1] = molecular target: CREB-binding protein/Histone acetyltransferase p300 (Homo sapiens, UniProt Q09472+Q92793); assay: Inhibition of p300/CBP (unknown origin) using biotinylated synthetic Histone H4 Peptide as substrate pretreated for 30 mins followed by substrate addition measured after 1 hr by radiometric scintillation proximity assay; assay type: protein assay
[2] = Protein binding in mouse plasma; assay type: ADME, cell-free
[3] = Unbound fraction in human microsomes; assay type: ADME, Microsome
[4] = Permeability of the compound by PAMPA; assay type: ADME
Mus musculus [5] = assay: Plasma clearance in mouse at 1 mg/kg, iv; assay type: ADME, organism-based; conditions: in vivo
Mus musculus [6] = species on record: Mus musculus; assay: Unbound plasma clearance in mouse; assay type: ADME, organism-based; conditions: in vivo
[7] = Unbound intrinsic clearance in mouse microsomes; assay type: ADME, Microsome
[8] = Clearance in mouse microsomes; assay type: ADME, Microsome
[9] = AUC in mouse at 10 mg/kg, po; assay type: ADME, organism-based; conditions: in vivo
[10] = Oral bioavailability in mouse; assay type: ADME, organism-based; conditions: in vivo

Which IC50 [1] does the source give for Cc1ccccc1C1NC(=O)N(CC(=O)N(Cc2ccccc2)[C@@H](C)C2CC2)C1=O (stereo partly drawn) here?
Its IC50 is 2.7 µM.

Which PPB [2] does the source give for CNC(=O)Nc1ccc2c(c1)CC[C@@]21OC(=O)N(CC(=O)N(Cc2ccccc2)[C@@H](C)C2CC2)C1=O here?
Its PPB is 99.1%.

What about the Fu [3] of the same molecule?
Its Fu is 0.48.

What about the permeability [4] of the same molecule?
Its permeability is 2.35 ×10⁻⁶ cm/s.

What about the CL (Mus musculus [5]) of the same molecule?
Its CL is 27 mL/min/kg.

What about the CL free (Mus musculus [6]) of the same molecule?
The CL free was 3100 mL/min/kg.

And the CL free [7]?
Its CL free is 3130 mL/min/kg.

And the CLint scaled [8]?
The CLint scaled was 1780 mL/min/kg.

And the AUC [9]?
Its AUC is 2500 ng·h/mL.

What about the bioavailability [10] of the same molecule?
Its bioavailability is 40%.

With CNC(=O)Nc1ccc2c(c1)CC[C@]21NC(=O)N(CC(=O)N(Cc2ccccc2)[C@@H](C)C2CC2)C1=O as the molecule, how does the permeability [4] read?
Its permeability is 0.47 ×10⁻⁶ cm/s.

For C[C@@H](C1CC1)N(Cc1ccccc1)C(=O)CN1C(=O)NC(c2ccccc2)C1=O (stereo partly drawn), which IC50 [1] is on record?
Its IC50 is 7.6 µM.

With CC(C1CC1)N(Cc1ccccc1)C(=O)CN1C(=O)NC(Cc2c[nH]c3ccccc23)C1=O (stereo not drawn) as the molecule, how does the IC50 [1] read?
The IC50 was 5.1 µM.
